Results as given in PubChem BioAssay (NCI).
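Compound exposure: 48 hours, 5 concentrations, 96-well plates. TGI: total growth inhibition.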

Key:
Assay in all cases: inhibition of tumour cell growth, NCI panel, 48 h
[1] = test system: TK-10 renal
[2] = test system: RPMI-8226 leukemia
[3] = test system: OVCAR-4 ovarian
[4] = test system: CAKI-1 renal
[5] = test system: MALME-3M melanoma
[6] = test system: HS 578T breast
[7] = test system: SF-295 CNS
[8] = test system: SR leukemia
[9] = test system: SN12C renal
[10] = test system: KM12 colon
[11] = test system: HCT-116 colon
[12] = test system: RXF 393 renal
[13] = test system: SF-268 CNS
[14] = test system: UO-31 renal
[15] = test system: U251 CNS
[16] = test system: A549 NSCLC
[17] = test system: SK-OV-3 ovarian
[18] = test system: HCT-15 colon
[19] = test system: OVCAR-3 ovarian
[20] = test system: SF-539 CNS

| SMILES | TGI [1] [µM] | TGI [2] [µM] | TGI [3] [µM] | TGI [4] [µM] | TGI [5] [µM] | TGI [6] [µM] | TGI [7] [µM] | TGI [8] [µM] | TGI [9] [µM] | TGI [10] [µM] | TGI [11] [µM] | TGI [12] [µM] | TGI [13] [µM] | TGI [14] [µM] | TGI [15] [µM] | TGI [16] [µM] | TGI [17] [µM] | TGI [18] [µM] | TGI [19] [µM] | TGI [20] [µM] |
| --- | --- | --- | --- | --- | --- | --- | --- | --- | --- | --- | --- | --- | --- | --- | --- | --- | --- | --- | --- | --- |
| CCOC(=O)CN1C(=O)c2ccc(NC(=O)C(=O)O)cc2S1(=O)=O | > 100 | > 100 | > 100 | > 100 | > 100 | > 100 | > 100 | > 100 | > 100 | > 100 | > 100 | > 100 | > 100 | > 100 | > 100 | > 100 | > 100 | > 100 |  |  |
| CN(C)CCC(=O)c1ccccc1 | > 68.4 | > 100 | > 74.1 | 40.5 | 24.1 |  | > 100 | 57.4 | > 70.1 | > 61.4 | 55.4 | 61.6 | > 74.7 | > 68.8 | > 69.4 | > 82.1 | > 68.8 | 46.9 | > 73.4 | > 70.3 |
| CCCNC(=S)NNC(=O)CSc1nc(-c2ccccc2)c(-c2ccccc2)[nH]1 | > 100 | > 100 | > 100 | 94.6 | 95.4 |  | > 100 | 93.4 | > 100 | > 100 | > 100 |  | > 100 | > 100 | > 100 | > 100 | > 100 | > 100 | 79.7 | > 100 |
| OC1C#CCSCC#C/C=C\1 (centres undefined) | > 100 |  | > 100 |  | > 100 | > 100 | > 100 | > 100 | > 100 |  | > 100 | 68.1 | > 100 | > 100 | > 100 |  | > 100 | > 100 | > 100 | > 100 |
| O=C1C(c2c(O)[nH]c3ccc(F)cc23)=Nc2ccccc21 | > 100 | > 100 |  | > 100 | > 100 | > 100 | > 100 | > 100 | > 100 | > 100 | > 100 | 9.77 | > 100 | > 100 | 42.7 | > 100 | 24.9 | > 100 | > 100 |  |
| O=[N+]([O-])c1ccc2c(c1)C1=C(CO2)Cc2ccccc2O1 | 57 | > 100 | > 100 | 31.4 | 70.4 |  | > 100 | > 100 | 45.2 | 39.3 | 30 |  | 63.5 | 28.1 | 36.2 | > 100 | > 100 | 31.2 | 41.6 | 52.2 |
| CC(C)(C)OC(=O)[C@H]1CCC(=S)N1Cc1ccccc1 | > 100 | > 100 | > 100 | > 100 | > 100 |  | > 100 | > 100 | > 100 | > 100 | > 100 | > 100 |  | > 100 | > 100 | > 100 | > 100 | > 100 | > 100 | > 100 |
| NNC(=O)c1n[nH]nc1C(=O)NN | > 100 | > 100 |  | 32.6 | 33.1 |  | > 100 | > 100 | > 100 | > 100 | > 100 | > 100 | > 100 | 41.8 | > 100 | > 100 |  | > 100 | > 100 |  |
| COc1ccc(/C=C2\N=C(SC)N(CN3CCOCC3)C2=O)cc1 | > 100 | > 100 | 78.2 |  | > 100 | > 100 | > 100 | > 100 | > 100 | > 100 | > 100 |  | > 100 | > 100 | > 100 | > 100 | > 100 | > 100 | > 100 |  |
| CN=C1CC2c3cc(OC)c(OC)cc3CCN2C2=C1C(=O)CC(C)(C)C2 (centres undefined) | > 100 |  |  | > 100 | > 100 |  | > 100 | > 100 | > 100 | > 100 | > 100 | > 100 | > 100 | > 100 | > 100 | > 100 |  |  | > 100 | > 100 |
| COC(=O)C(Cc1c[nH]c2ccccc12)NP(=O)(O)OCC1OC(n2cc(I)c(=O)[nH]c2=O)CC1O (centres undefined) | > 100 | > 100 | > 100 | > 100 | > 100 | > 100 | > 100 | > 100 | > 100 | > 100 | > 100 |  | > 100 | > 100 | > 100 | > 100 | > 100 | > 100 | > 100 | > 100 |
| O=c1c(/C=C/c2c(O)ccc3ccccc23)nnc2sc(-c3cccc(Br)c3)nn12 |  | > 100 | 31.9 | 56.8 | > 100 | > 100 | > 100 | 41.1 |  | 63.6 | > 100 |  | > 100 | 69.6 | > 100 | > 100 | > 100 | 64.7 | > 100 | > 100 |
| COc1cc2c(C)cc(O)cc2c2cc(O)c(C)cc12 | 23.8 | 6.64 | 21.9 | 22.4 |  | 53.8 | 23.8 | 6.18 | 19.8 | 20.2 | 20.7 | 22.9 | 29.6 | 19.1 | 21.3 | 23.8 | 23.8 | 17.9 | 22.3 | 19.1 |
| O=C1CCCC1CN1CCCC1 (centres undefined) | 25.1 | 6.8 | 4.32 | 0.773 | 3.72 | 55.7 | > 100 | 1.16 | 32.6 | 35 | 11.7 |  | 48.5 | 17.6 | > 56.8 | > 100 | 27.7 | 5.89 | 28.9 | 36.7 |
| CSc1ncnc2c1ncn2CCC(=O)OC(C)(C)C | > 100 | > 100 | > 100 | > 100 | > 100 |  | > 100 | > 100 | > 100 | > 100 | > 100 | > 100 | > 100 | > 100 |  | > 100 | > 100 |  | > 100 | > 100 |
| O=C(O)[C@@H]1CCS(=O)(=O)N1 | > 100 |  | > 100 | > 100 | > 100 |  | > 100 | > 100 | > 100 | > 100 | > 100 | > 100 | > 100 |  |  | > 100 | > 100 | > 100 | > 100 | > 100 |
| CC(=O)c1[nH]c(NCc2ccccc2)c(C(=S)Nc2ccccc2)c1N | 63.8 |  | 79.9 | 98.2 | 38.6 | 58.9 | 66 | > 100 | 50.8 | 36.9 | 34.1 | 35.6 | 55.3 | 6.34 | 32.7 | 93.9 | > 100 | 39.9 | 97.9 | 32.1 |
| COC(=O)/C=C(\C)CC(O)/C=C(\C)CCC=C(C)C (centres undefined) | > 100 |  | > 100 | > 100 | > 100 | > 100 | > 100 | 68.2 | > 100 | > 100 | > 100 | > 100 |  | > 100 | > 100 | > 100 | > 100 | > 100 | 87.7 | > 100 |
| O=C(O)C(NCc1ccccc1)C(NCc1ccccc1)C(=O)O (centres undefined) | > 100 | > 100 | > 100 | > 100 | > 100 | > 100 | > 100 | > 100 | > 100 | > 100 | > 100 |  | > 100 | > 100 | > 100 | > 100 | > 100 | > 100 | > 100 | > 100 |
| CC(=O)Oc1ccc2c(C)cc(=O)oc2c1OC(C)=O | 84.9 | 89.9 | > 100 |  | 99.6 | 99.5 | > 100 | > 100 | > 100 | > 100 | > 100 |  | > 100 | 76.9 | > 100 | > 100 | > 100 | 81.6 | > 100 | > 100 |
| S=c1sc2c(Cl)nc(Cl)nc2n1-c1ccccc1 | > 100 | > 100 | > 100 | > 100 | > 100 |  | > 100 | 55.1 | > 100 | > 100 | 31.1 | 50.6 | 23.2 | > 100 | 98 | > 100 | > 100 | 32 | 60.4 | > 100 |
| COC(CNC(=O)C(C)NC(=O)/C=C/c1ccccc1)OC (centres undefined) | > 100 | > 100 |  | > 100 | > 100 | > 100 | > 100 | > 100 | > 100 | > 100 | > 100 | > 100 | > 100 | > 100 | > 100 | > 100 | > 100 | > 100 |  | > 100 |
| Oc1[nH]c2ccccc2c1N=NC(=S)Nc1cccc(Cl)c1 | 84.8 |  | 59.4 | 44.9 | 52.3 | > 100 | 29.2 | 9.71 | > 100 | 58.8 | 17.3 | 48.7 | > 100 | > 100 | 89.1 | 35.6 | 61.1 | > 100 | > 100 | 22.4 |
| N#CCCN(C(=O)Nc1ccccc1)[C@H]1CCCC[C@@H]1N(C(=O)Nc1ccccc1)c1ccccc1 | > 100 | > 100 | > 100 | > 100 | > 100 |  | > 100 | > 100 | > 100 | > 100 | > 100 | > 100 |  | > 100 | > 100 | > 100 | > 100 | > 100 | > 100 | > 100 |
| COc1ccc(P2(=S)OC(C)(C)C(C)(C)O2)cc1 | > 100 |  | > 100 | > 100 | > 100 | > 100 | > 100 | > 100 | > 100 | > 100 | > 100 |  |  | > 100 | > 100 | > 100 |  | > 100 | > 100 | > 100 |
| CC(C)C(=O)OCC1OC(n2c(Br)nc3c(=O)[nH]c(N)nc32)C(OC(=O)C(C)C)C1OC(=O)C(C)C (centres undefined) |  |  |  |  | > 100 | > 100 | 56.7 | > 100 | > 100 |  | > 100 |  | > 100 | > 100 |  | > 100 | > 100 | > 100 | > 100 |  |
| COC(=O)C1=C(C(=O)NNc2ccccc2)N(c2cccnc2Cl)C(c2ccccc2)=CC1c1ccccc1 (centres undefined) | > 100 | 82.8 | > 100 | > 100 | > 100 | > 100 | 56 | > 100 | > 100 | > 100 | > 100 |  | > 100 |  | > 100 | > 100 | > 100 | > 100 | > 100 | > 100 |
